“And” between values parts separate entries of the source, which are not always exact repeats. Equal values may be shown once.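 Compound exposure: 48 hours, 5 concentrations, 96-well plates. GI50 is the concentration that inhibits growth by half. At the TGI there is no net growth.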
Assays:
Test in all cases: inhibition of tumour cell growth, NCI panel, 48 h
786-0 renal = tested on: 786-0 renal
A549 NSCLC = tested on: A549 NSCLC
ACHN renal = tested on: ACHN renal
CCRF-CEM leukemia = tested on: CCRF-CEM leukemia
EKVX NSCLC = tested on: EKVX NSCLC
OVCAR-3 ovarian = tested on: OVCAR-3 ovarian
RXF 393 renal = tested on: RXF 393 renal
SK-MEL-2 melanoma = tested on: SK-MEL-2 melanoma
SK-MEL-28 melanoma = tested on: SK-MEL-28 melanoma
SNB-19 CNS = tested on: SNB-19 CNS

SMILES | TGI (786-0 renal) | TGI (A549 NSCLC) | TGI (ACHN renal) | TGI (CCRF-CEM leukemia) | TGI (EKVX NSCLC) | TGI (OVCAR-3 ovarian) | TGI (RXF 393 renal) [µM] | TGI (SK-MEL-2 melanoma) | TGI (SK-MEL-28 melanoma) | TGI (SNB-19 CNS) | GI50 (786-0 renal) | GI50 (A549 NSCLC) | GI50 (ACHN renal) | GI50 (CCRF-CEM leukemia) | GI50 (EKVX NSCLC) | GI50 (OVCAR-3 ovarian) | GI50 (RXF 393 renal) | GI50 (SK-MEL-2 melanoma) | GI50 (SK-MEL-28 melanoma) | GI50 (SNB-19 CNS)
O=C1C2Nc3ccccc3SC2C(=O)N1c1ccccc1C(F)(F)F (stereo not given) | 68.5 µM | > 100 µM | > 100 µM | > 100 µM | > 100 µM | 60.6 µM | 23.7 | > 100 µM | > 100 µM | > 100 µM |  |  |  |  |  |  |  |  |  | 
CC(C)COC(=O)c1ccc2[nH]c(O)c(C=Nc3ccc(S(N)(=O)=O)cc3)c2c1 | 4.24 µM | 5.88 µM | 5.8 µM | 15.3 µM | 15.6 µM | 2.28 µM | 1.61 | 4.19 µM | 4.75 µM | 13.7 µM | 1.21 µM | 1.74 µM | 0.885 µM | 0.823 µM | 3.97 µM | 0.802 µM | 0.747 µM | 1.73 µM | 1.69 µM | 1.93 µM
CN1C(Cl)=NS(=O)(=O)c2ccccc21 | > 100 µM | > 100 µM | > 100 µM | > 100 µM | > 100 µM | > 100 µM | > 100 | > 100 µM | > 100 µM | > 100 µM |  |  |  |  |  |  |  |  |  | 
COc1cc2c3c(n(CCCN=[N+]=[N-])c(=O)c2cc1OC)-c1ccc(N(C)C)cc1C3=O | > 100 µM | > 100 µM | > 100 µM | > 100 µM | > 100 µM | > 100 µM | > 100 | > 100 µM | > 100 µM | > 100 µM | > 100 µM | > 100 µM | > 100 µM | > 100 µM | > 100 µM | > 100 µM | > 100 µM | > 100 µM | > 100 µM | > 100 µM
C[C@H]1C(=O)CC[C@]2(C)CCC(C(C)(C)O)CC12O (stereo not given in full) | > 100 µM | > 100 µM | > 100 µM | > 100 µM | > 100 µM | > 100 µM | > 100 | > 100 µM | > 100 µM | > 100 µM |  |  |  |  |  |  |  |  |  | 
[Cl][Cd][Cl] | 44.4 µM and 17.6 µM | > 66.5 µM and 106 µM | 162 µM | 56.7 µM and 89.7 µM | 52 µM and 19.9 µM | 8 µM and 25.9 µM and 15.3 µM | 41.2 | 24.8 µM and 18.9 µM | 34.6 µM and 30.4 µM | > 61 µM and 146 µM | 21 µM and 8.67 µM | > 47.8 µM and 33.2 µM | 77.7 µM | 20.7 µM and 9.08 µM | 24.7 µM and 9.95 µM | 3.26 µM and 12.1 µM and 6.94 µM | 50.1 µM and 13.6 µM | 16.4 µM and 8.88 µM | 17.9 µM and 11.6 µM | > 44.1 µM and 49.9 µM
COc1ccc2c(c1OC)C(=O)c1cnccc1C2=O | > 100 µM | > 100 µM | > 100 µM | > 100 µM | > 100 µM | > 100 µM | > 100 | > 100 µM | > 100 µM | > 100 µM |  |  |  |  |  |  |  |  |  | 
COc1ccc2nc(NC(=O)C(=O)C(C#N)c3ccc(Cl)c(Cl)c3)sc2c1 (stereo not given) | > 100 µM | > 100 µM | > 100 µM | > 100 µM | > 100 µM | > 100 µM | > 100 | > 100 µM | > 100 µM | > 100 µM |  |  |  |  |  |  |  |  |  | 
O=C(Nc1ccc(I)cc1F)c1cc(Cl)ccc1O | 7.18 µM | > 100 µM | 10.6 µM | 10 µM | 6.81 µM | 10.7 µM | 3.07 | 1.99 µM | 1.71 µM | > 100 µM | 2.19 µM | 2.73 µM | 0.487 µM | 1.73 µM | 1.03 µM | 0.413 µM | 0.507 µM | 0.358 µM | 0.353 µM | 0.372 µM
Cc1ccccc1-n1c(C)nc(-c2ccccc2)cc1=O | > 100 µM | > 100 µM | > 100 µM | > 100 µM | > 100 µM | > 100 µM | > 100 | > 100 µM | > 100 µM | > 100 µM |  |  |  |  |  |  |  |  |  | 
CC(Br)C(=O)Nc1ccc(C(=O)O)c(O)c1 (stereo not given) | > 100 µM | > 100 µM | > 100 µM | 43.6 µM | > 100 µM | 73.7 µM | > 100 | > 100 µM | > 100 µM | > 100 µM |  |  |  |  |  |  |  |  |  | 
COC1=C2CC(C)CC(OC)C(O)C(C)/C=C(\C)C(OC(N)=O)C(OC)/C=C\C=C(/C)C(=O)NC(=C(/C=N/N3CCCCC3)C1=O)C2=O (stereo not given) | 22.8 µM | 46.7 µM | 28.8 µM | 7.85 µM | 14.7 µM | 4.62 µM | 14.3 | 32.5 µM | 37 µM | 41.9 µM |  |  |  |  |  |  |  |  |  | 
O=C(NS(=O)(=O)c1ccccc1)C(Cc1ccccc1)C(Cc1ccccc1)C(=O)NS(=O)(=O)c1ccccc1 (stereo not given) | > 100 µM | > 100 µM | > 100 µM | > 100 µM | > 100 µM | > 100 µM | > 100 | > 100 µM | > 100 µM | > 100 µM |  |  |  |  |  |  |  |  |  | 
C=C1c2c(Cl)ccc(O)c2C(O)=C2C(=O)[C@]3(O)C(O)=C(C(N)=O)C(=O)[C@@H](N(C)C)[C@@H]3[C@@H](O)[C@H]12 | 5.22 µM | 16.6 µM | > 50 µM | 39.6 µM | 13 µM | 5.25 µM | 2.82 | 1.98 µM | 4.45 µM | > 50 µM | 1.17 µM | 1.39 µM | 1.37 µM | 1.45 µM | 1.51 µM | 1.36 µM | 0.534 µM | 0.727 µM | 1.08 µM | 1.44 µM
O=C1C=CC(O)C2C1CC13SSC4(CC5C(=O)C=CC(O)C5N4C1=O)C(=O)N23 (stereo not given) | 0.49 µM | 10.8 µM | 0.835 µM | 1.95 µM | 2.33 µM | 0.53 µM | 1.48 | 3.56 µM | 1.91 µM | 5.19 µM |  |  |  |  |  |  |  |  |  | 
OCCN1CCN(CC/C=C2\c3ccccc3Sc3ccc(Cl)cc32)CC1 | 3.65 µM and 8.58 µM | 22.9 µM and 14.3 µM | 17 µM and 17.9 µM | 4.58 µM and 11.9 µM | 23.7 µM and 21 µM | 13.1 µM and 17.8 µM | 11.4 | 5.98 µM and 4.9 µM | 3.91 µM and 3.03 µM | 6.43 µM and 10.4 µM | 1.82 µM and 3.06 µM | 4.79 µM and 4.13 µM | 5.06 µM and 6.56 µM | 1.61 µM and 3.29 µM | 5.78 µM and 6.11 µM | 2.88 µM and 5.66 µM | 4.16 µM | 2.75 µM and 2.26 µM | 1.66 µM | 2.45 µM and 4.49 µM
Nc1n[nH]c(CCc2nc(N)n[nH]2)n1 | > 100 µM | > 100 µM | > 100 µM | > 100 µM | > 100 µM | > 100 µM | > 100 | > 100 µM | > 100 µM | > 100 µM |  |  |  |  |  |  |  |  |  | 
